Reference: ChEMBL document CHEMBL1148514, “Development of lipopeptides for inhibiting 20S proteasomes” (Bioorg Med Chem Lett, 2006)
Residues, ends and D or L forms follow the SMILES beside them.

Key:
[1] = target: T1, Proteasome Macropain subunit PRE2 (Saccharomyces cerevisiae S288c, UniProt P30656); assay: Inhibition of chymotrypsin like activity of yeast 20S proteasome
T1 sequence (P30656 whole entry): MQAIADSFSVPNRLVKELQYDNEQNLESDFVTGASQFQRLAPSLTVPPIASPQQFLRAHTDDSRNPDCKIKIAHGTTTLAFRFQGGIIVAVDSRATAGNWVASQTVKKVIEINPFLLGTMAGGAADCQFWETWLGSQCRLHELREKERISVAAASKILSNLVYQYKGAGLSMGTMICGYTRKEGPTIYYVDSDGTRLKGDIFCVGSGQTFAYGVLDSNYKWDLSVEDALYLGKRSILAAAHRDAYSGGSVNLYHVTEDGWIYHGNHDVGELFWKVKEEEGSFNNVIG

[2] = target: T2, Proteasome component C5 (Saccharomyces cerevisiae S288c, UniProt P23724); assay: (§1) Inhibition of post acid activity of yeast 20S proteasome at 625 uM
T2 sequence (P23724 whole entry): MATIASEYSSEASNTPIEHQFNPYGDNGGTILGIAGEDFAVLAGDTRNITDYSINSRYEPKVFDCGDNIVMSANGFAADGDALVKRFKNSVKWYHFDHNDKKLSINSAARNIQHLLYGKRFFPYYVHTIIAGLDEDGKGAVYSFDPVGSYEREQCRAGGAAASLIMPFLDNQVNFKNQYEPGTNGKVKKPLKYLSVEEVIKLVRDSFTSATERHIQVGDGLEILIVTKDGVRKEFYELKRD

[3] = target: T3, Proteasome Macropain subunit (Saccharomyces cerevisiae S288c) (UniProt P22141); assay: Inhibition of trypsin like activity of yeast 20S proteasome at 625 uM
T3 sequence (whole entry): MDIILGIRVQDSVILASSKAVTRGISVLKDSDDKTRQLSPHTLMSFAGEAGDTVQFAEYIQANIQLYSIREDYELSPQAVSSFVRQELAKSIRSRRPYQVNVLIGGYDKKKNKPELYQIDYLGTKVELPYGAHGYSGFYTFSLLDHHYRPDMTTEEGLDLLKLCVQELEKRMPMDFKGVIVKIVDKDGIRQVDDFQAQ

[4] = target: T4, Proteasome component C5 (Saccharomyces cerevisiae S288c) (UniProt P23724); assay: Activation of post acid activity of yeast 20S proteasome
T4 sequence (whole entry): T2 sequence (P23724 whole entry)

[5] = target: T3, Proteasome Macropain subunit (Saccharomyces cerevisiae S288c); assay: Activation of trypsin like activity of yeast 20S proteasome
[6] = target: T4, Proteasome component C5 (Saccharomyces cerevisiae S288c); assay: as §1
[7] = target: T5, Proteasome Macropain subunit PRE2 (Saccharomyces cerevisiae S288c) (UniProt P30656); assay: Activation of chymotrypsin like activity of yeast 20S proteasome
T5 sequence (whole entry): T1 sequence (P30656 whole entry)

[8] = target: T5, Proteasome Macropain subunit PRE2 (Saccharomyces cerevisiae S288c); assay: Inhibition of chymotrypsin like activity of yeast 20S proteasome at 80 uM
[9] = target: T6, Proteasome Macropain subunit (Saccharomyces cerevisiae S288c, UniProt P22141); assay: Inhibition of trypsin like activity of yeast 20S proteasome
T6 sequence (P22141 whole entry): T3 sequence (whole entry)

[10] = target: T5, Proteasome Macropain subunit PRE2 (Saccharomyces cerevisiae S288c); assay: Inhibition of chymotrypsin like activity of yeast 20S proteasome at 625 uM
[11] = target: T4, Proteasome component C5 (Saccharomyces cerevisiae S288c); assay: Inhibition of post acid activity of yeast 20S proteasome at 80 uM
[12] = target: T2, Proteasome component C5; assay: Inhibition of post acid activity of yeast 20S proteasome

## H-TITYKF-OH
[1]
  Ki: 151 µM
[2]
  Ki: 260 µM
[3]
  inhibition: < 10%

## CCCCCCCCCCCCCCCCCC(=O)N[C@H](C(=O)N[C@H](C(=O)N[C@H](C(=O)N[C@@H](Cc1ccccc1)C(=O)N[C@@H](CC(=O)O)C(=O)N[C@@H](Cc1ccc(O)cc1)C(=O)O)[C@@H](C)O)[C@@H](C)CC)[C@@H](C)O (HELM PEPTIDE1{[CCCCCCCCCCCCCCCCCC(=O)[*:2]].T.I.T.F.D.Y}$$$$V2.0)
[1]
  Ki: 39 µM
[4]
  Activity: 1.3
[5]
  Activity: 1.6

## H-TVTYKL-OH
[1]
  Ki: 545 µM
[6]
  inhibition: < 10%
[3]
  inhibition: < 10%

## CCCCCCCCCCCCCCCC(=O)N[C@H](C(=O)N[C@H](C(=O)N[C@H](C(=O)N[C@@H](Cc1ccc(O)cc1)C(=O)N[C@@H](CCCCN)C(=O)N[C@@H](Cc1ccccc1)C(=O)O)[C@@H](C)O)C(C)C)[C@@H](C)O (HELM PEPTIDE1{[CCCCCCCCCCCCCCCC(=O)[*:2]].T.V.T.Y.K.F}$$$$V2.0)
[7]
  Activity: 1.6

## CCCCCCCCCCCCCC(=O)N[C@H](C(=O)N[C@H](C(=O)N[C@H](C(=O)N[C@@H](Cc1ccccc1)C(=O)N[C@@H](CC(=O)O)C(=O)N[C@@H](Cc1ccc(O)cc1)C(=O)O)[C@@H](C)O)[C@@H](C)CC)[C@@H](C)O (HELM PEPTIDE1{[CCCCCCCCCCCCCC(=O)[*:2]].T.I.T.F.D.Y}$$$$V2.0)
[4]
  Activity: 1.3
[8]
  inhibition: < 10%
[9]
  Ki: 78 µM

## CCCCCCCC(=O)N[C@H](C(=O)N[C@H](C(=O)N[C@H](C(=O)N[C@@H](Cc1ccc(O)cc1)C(=O)N[C@@H](CCCCN)C(=O)N[C@@H](Cc1ccccc1)C(=O)O)[C@@H](C)O)C(C)C)[C@@H](C)O (HELM PEPTIDE1{[CCCCCCCC(=O)[*:2]].T.V.T.Y.K.F}$$$$V2.0)
[1]
  Ki: 20 µM
[4]
  Activity: 1.3
[5]
  Activity: 1.2

## H-TVTYDY-OH
[6]
  inhibition: < 10%
[3]
  inhibition: < 10%
[10]
  inhibition: < 10%

## CCCCCCCC(=O)N[C@@H](Cc1ccc(O)cc1)C(=O)N[C@@H](CCC(=O)O)C(=O)N[C@@H](CC(C)C)C(=O)O (HELM PEPTIDE1{[CCCCCCCC(=O)[*:2]].Y.E.L}$$$$V2.0)
[1]
  Ki: > 80 µM
[11]
  inhibition: < 10%
[5]
  Activity: 1.9

## H-TITYDF-OH
[12]
  Ki: > 625 µM
[3]
  inhibition: < 10%
[10]
  inhibition: < 10%

## H-TITYEY-OH
[6]
  inhibition: < 10%
[3]
  inhibition: < 10%
[10]
  inhibition: < 10%
